Source: patent US11583543B2, “Ambroxol to improve and/or extend healthspan, lifespan and/or mental acuity” (NeueRe, LLC, priority 2017, dated 2023)

Experiments:
male BDF1 mice = test: Lifespan study with ambroxol as chow supplement; format: in vivo, mouse
Experimental: Group 1 represents control animals that were not administered ambroxol; Group 2 represents animals administered 50 mg/kg (body weight) of ambroxol daily as a chow supplement, starting at 2 months of age
Weaned male BDF1 mice were raised from pups, housed 1-4 animals per cage and fed Teklad 7013 NIH-31 rodent chow and water ad libitum. At 2 months of age, the mice were divided into two roughly equal groups of 22-25 animals. One group continued to be fed the Teklad chow as before (control); the other group was switched to Teklad chow formulated with ambroxol at 300 mg per kg of chow. This formulation was designed, based on the average ad libitum chow consumption of an adult male BDF1 mouse, to deliver 50 mg/kg/day (based on body mass) to each mouse in the treated group. Mice were maintained on this diet until they died naturally or until they reached 16 months of age, at which time the experiment ended. During the course of the experiment all mice were periodically removed from their cages and handled in the course of subjecting them to various sensorimotor, cognitive, and/or behavioral tests.
Group 1 represents control animals that were not administered ambroxol; Group 2 represents animals administered 50 mg/kg of ambroxol daily as a chow supplement, starting at 2 months of age.

mice = test: Novel place recognition cognitive acuity test; format: in vivo, mouse; conditions: tested at 7 months, FIG. 2
Experimental: FIG. 2. Mice were tested at age 7 months for novel place recognition. This is a cognitive test to measure short term working memory, involving recognition of a familiar object found in an unfamiliar place (see Magen et al (2012) Eur. J. Neurosci. 35: 870-882; Magen and Chesselet (2011) J. Parkinson's Disease 1: 217-227). A Discrimination Index (DI)=(tnovel−tfamiliar)/(tnovel+tfamiliar) is used to assess the time spent exploring near the object in a novel place (“tnovel”) vs. the total exploration time overall. Discrimination Index scores greater than zero are considered to indicate good place recognition memory. In this experiment, three groups of mice, with at least 13 mice in each group, were given a cognitive acuity test at 7 months.

NIH3T3 cells = test: Basal macroautophagy, mCherry-GFP-LC3 tandem reporter, high content microscopy; format: cell-based, mouse; conditions: 24 h in complete media; autophagic vacuoles, autophagosomes, autolysosomes; FIG. 3
Experimental: FIG. 3. Effect of Ambroxol on basal macroautophagy in mouse cells. Mouse fibroblasts in culture (NIH3T3 cells) expressing the tandem reporter mCherry-GFP-LC3 were exposed to the indicated concentrations of Ambroxol for 24 h in complete media. Panel A. Schematic of the autophagic compartments analyzed. Panels B-D. Number of autophagic vacuoles (AV) (Panel B); autophagosomes (APG) (Panel C); and autolysosomes (AUT) (Panel D). All values are mean+s.e.m. and quantifications were done in at least 2,500 cells per condition in three different experiments using high content microscopy. Differences with untreated (0 uM ambroxol) are significant for *p<0.05 **p<0.01 and ***p<0.001.
Mouse fibroblasts (NIH3T3) were obtained from the American Type Culture Collection (ATCC). […] The number of particles/puncta per cell was quantified using the ‘particle identifier’ function in the cytosolic region after thresholding in non-saturated images. In all cases, focal plane thickness was set at 0.17 μm and sections with maximal nucleus diameter were selected for quantification. […] Macroautophagy activity in intact cells was measured upon transduction with lentivirus carrying the mCherry-GFP-LC3 tandem construct. […] Cells were plated on glass-bottom 96 well plates and fluorescence was read in both channels. […] Autophagic flux was determined as the conversion of autophagosomes (yellow) to autolysosomes (red only puncta).

In the case of `Nc1c(Br)cc(Br)cc1CN[C@H]1CC[C@H](O)CC1` [Ambroxol, trans-4-(2-amino-3,5-dibromobenzylamino) cyclohexanol], the lifespan (male BDF1 mice; 50 mg/kg daily as chow supplement from 2 months of age, until 16 months, vs control (Group 1), FIG. 1) is reported as “increase lifespan”, the “healthspan (health of surviving animals when sacrificed)” value (male BDF1 mice; Group 2, 50 mg/kg daily, vs Group 1 control, preliminary data) is reported as “at least as healthy” and the cognitive acuity (mice; High Dose group 150 mg/kg/day) is reported as “best cognitive acuity results”. For the same compound, the cognitive acuity (mice; Low Dose group 50 mg/kg/day) was “results in between the Control Group and the “High Dose” Group” and the macroautophagy (NIH3T3 cells) was “Induces Macroautophagy”.
